Data as given in patent publication US11447504B2, “Macrocyclic chlorine substituted indole derivatives” (Bayer Aktiengesellschaft, priority 2017, dated 2022).
Counter-ions that a name gives are not always drawn. Like-named read-outs stand apart in the source and are kept apart here.

What was measured:
[1] = biological target: BCL-2 (Homo sapiens (Human), UniProt P10415); assay: Protein-protein interaction assay BCL-2/Bad BH3 peptide (BCL-2 Assay, TR-FRET); assay type: binding; conditions: read-out: BCL-2 Assay IC50 (median)
Chain of BCL-2 (P10415 other isoform, or with tags, fused parts or gaps): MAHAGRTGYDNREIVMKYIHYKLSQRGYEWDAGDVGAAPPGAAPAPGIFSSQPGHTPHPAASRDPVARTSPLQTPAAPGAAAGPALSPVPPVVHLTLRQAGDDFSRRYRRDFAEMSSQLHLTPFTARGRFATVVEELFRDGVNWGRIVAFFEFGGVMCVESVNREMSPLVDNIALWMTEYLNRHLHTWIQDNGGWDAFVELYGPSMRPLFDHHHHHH
Experimental: The dose-dependent inhibition by the compounds described in this invention of the interaction between BCL-2 and the BH3 domain of Bad (both human) was determined using a steady state binding competition assay with time-resolved fluorescence energy transfer (TR-FRET) readout.
(§1) For that, 100-fold concentrated DMSO solutions were prepared by serial dilutions (1:3.4) of a 2 mM stock solution in a clear, 384-well microtiter plate (Greiner Bio-One, Frickenhausen, Germany). From there, 50 nl were transferred in a dark test plate (Greiner Bio-One, Frickenhausen, Germany). […] This was followed by a 10-minute incubation step at 22° C. for pre-equilibration of the putative complex between His-BCL-2 and the compounds.
The mixture was incubated in the dark for one hour at 22° C. and then overnight at 4° C.
(§2) The resulting data (ratio) were normalized, taking 0% inhibition as the mean value of control measurements (usually 32 data points) where all reagents were included. In this case 50 nl DMSO were used instead of compounds. […] IC50 values were determined by regression analysis based on a 4 parameter equation (minimum, maximum, IC50, Hill; Y=Max+(Min−Max)/(1+(X/IC50)^Hill) using the Screener Software (Genedata).

[2] = biological target: BCL-XL (Homo sapiens (Human), UniProt Q07817); assay: Protein-protein interaction assay BCL-XL/Bad BH3 peptide (BCL-XL Assay, TR-FRET); assay type: binding; conditions: read-out: BCL-XL Assay IC50 (median)
Chain of BCL-XL (Q07817 other isoform, or with tags, fused parts or gaps): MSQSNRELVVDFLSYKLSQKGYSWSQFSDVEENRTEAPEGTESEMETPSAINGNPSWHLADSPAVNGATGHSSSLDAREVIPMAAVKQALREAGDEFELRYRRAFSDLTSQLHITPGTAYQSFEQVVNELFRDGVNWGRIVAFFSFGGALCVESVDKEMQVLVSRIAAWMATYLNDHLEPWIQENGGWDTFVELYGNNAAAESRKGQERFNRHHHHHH
Experimental: Assay 2 Protein-Protein Interaction Assay: BCL-XL/Bad BH3 Peptide (BCL-XL Assay)
The dose-dependent inhibition by the compounds described in this invention of the interaction between BCL-XL and the BH3 domain of Bad (both human) was determined using a steady state binding competition assay with time-resolved fluorescence energy transfer (TR-FRET) readout.
as §1, with “His-BCL-XL” for “His-BCL-2”
The mixture was incubated in the dark for one hour at 22° C. and then overnight at 4° C. The formation of BCL-XL/Bad complexes was determined by measuring the resonance energy transfer of the anti-His- Eu-cryptate antibody to the streptavidin-XL665 present in the reaction.
as §2

[3] = system: HMC-1-8; assay: Antiproliferation assay 7, HMC-1-8; assay type: cell-based; conditions: HMC-1-8 cells, CellTiter-Glo, read-out: Antiproli HMC-1-8 IC50 median
How it was run: (§3)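 Proliferation was read by CellTiter-Glo luminescence after 72 hours of compound treatment at 37° C. The read was referenced to a parallel plate measured at time zero.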

[4] = system: SUDHL5; assay: Antiproliferation assay 7, SUDHL5; assay type: cell-based; conditions: SUDHL5 cells, CellTiter-Glo, read-out: Antiproli SUDHL5 IC50 (median)
How it was run: as §3

IC50 [1] [µM] | IC50 [2] [µM] | IC50 ([4]; Homo sapiens, SU-DHL-5, 72 h) [µM] | IC50 ([4]; 72 hours) [µM] | Structure (SMILES) | IC50 ([3]; 72 h) [µM] | IC50 ([3]; 72 hours) [µM]
> 20 | > 20 | 2 | – | Cc1c2c(nn1C)N(C)CCCCCn1c(C(=O)O)c(CCCOc3cccc4ccccc34)c3ccc(Cl)c-2c31 (racemic) [Example 71, (rac)-4-chloro-2,3,15-trimethyl-7-{3-[(naphthalen-1-yl)oxy]propyl}-10,11,12,13,14,15-hexahydro-2H-pyrazolo[4′,3′:4,5][1,6]diazacycloundecino[3,2,1-hi]indole-8-carboxylic acid] | 22 | –
19 | > 20 | – | 0.81 | Cc1c2c(nn1C)N(C)CCCCCn1c(C(=O)O)c(CCCOc3cccc4cc(F)ccc34)c3ccc(Cl)c-2c31 (racemic) [Example 74, (rac)-4-chloro-7-{3-[(6-fluoronaphthalen-1-yl)oxy]propyl}-2,3,15-trimethyl-10,11,12,13,14,15-hexahydro-2H-pyrazolo[4′,3′:4,5][1,6]diazacycloundecino[3,2,1-hi]indole-8-carboxylic acid] | – | 5.4
> 20 | > 20 | 2.3 | – | CCc1c2c(nn1C)N(C)CCCCCn1c(C(=O)O)c(CCCOc3cccc4cc(F)ccc34)c3ccc(Cl)c-2c31 (single isomer, unassigned; enantiomer 1) [Example 78, 4-chloro-3-ethyl-7-{3-[(6-fluoronaphthalen-1-yl)oxy]propyl}-2,15-dimethyl-10,11,12,13,14,15-hexahydro-2H-pyrazolo[4′,3′:4,5][1,6]diazacycloundecino[3,2,1-hi]indole-8-carboxylic acid-N-ethylethanamine Salt—Enantiomer 1] | – | 2.4
19 | > 20 | – | 0.52 | Cc1c2c(nn1C)N(C)CCCCCn1c(C(=O)O)c(CCCOc3cccc4cc(F)ccc34)c3ccc(Cl)c-2c31 [Example 75, (+)-4-chloro-7-{3-[(6-fluoronaphthalen-1-yl)oxy]propyl}-2,3,15-trimethyl-10,11,12,13,14,15-hexahydro-2H-pyrazolo[4′,3′:4,5][1,6]diazacycloundecino[3,2,1-hi]indole-8-carboxylic acid-N-ethylethanamine salt] | – | 3.4
